A short description of data set [1]: Stability in liver microsomes. In kind it is in vitro ADME. Particulars: human, read-out: liver microsomes t1/2. (In general: Liver microsomes are a subcellular fraction often used to study metabolism.)
The nature of data set [2]: CCK8 cytotoxicity assay in THP-1 cells. In kind it is cell-based. Particulars: human, CCK-8. The method, then: 4 day cytotoxicity assay using THP-1 cells: THP-1 cells grown in suspension were counted and diluted to 8×10^4 cells/ml in RPMI-1640 media supplemented with 10% fetal bovine serum (FBS) and 1% penicillin/streptomycin. 25 ul of the THP-1 containing media consisting of 2000 cells were dispensed in 384-well tissue culture plate and pre-incubated at room temperature for 30 minutes, followed by 37° C., 5% CO2 overnight in the humidified incubator. On the next day, serial-diluted compound plates were prepared and 125 nl of compounds at various concentrations were then dispensed into the tissue culture well (200× dilution). The plates were then transferred to 37° C., 5% CO2 humidified incubator for additional 96 hours. Cytotoxicity was measured by CCK-8 assay. Briefly, CCK-8 was thawed on bench top and diluted 2.5× with the growth media. 35 ul of the pre-diluted CCK-8 was then introduced into each well and the plates were then further incubated in 37° C., 5% CO2 humidified incubator for 3 hours. The absorbance was read by Envision at 450 nm. Dose response curves were calculated as in the previous section (n=2). The CC50 is estimated as the concentration of the compound which will inhibit 50% of the signal. A positive control (puromycin) was used to ensure the quality of the data.
For orientation: Tetrazolium assays rely on reduction of a dye to a coloured formazan, in cell work by metabolically active cells.

Data set [3] is described as follows: Nucleoside triphosphate concentrations in dog PBMC after oral administration. The settings on record: oral administration of 3 mg/Kg. In kind it is in vivo. The method, then: Male beagle dogs were administered a single intravenous (0.5 mg/kg) or oral dose (3-15 mg/kg) of a representative compound of the present invention. Blood samples (3.5 mL) were collected at 0, 0.0833 (IV only), 0.25, 0.5, 1, 2, 4, 6, 8, 24, 48, 72 hours post-dose through the jugular vein. K2EDTA was used as the anticoagulant. Plasma was prepared from an aliquot of 0.5 mL of blood and assayed for the compound and metabolites by tandem mass spectrometric method (LC/MS-MS). PBMC was isolated from 3 mL of blood and assayed for nucleoside triphosphate (NTP) levels by LC/MS-MS.
Three mL of blood was collected from the dog into EDTA vacutainers and mixed on a rocker & immediately placed on ice. The blood was transferred to a 15 mL falcon tube. Three mL PBS (w/o Ca/Mg) and 3 mL 6% dextran (in PBS) were added and was left for 30 minutes on ice to allow the red blood cells to sediment. Blood supernatant (5-7 mL) was layered on top of 5 mL of Mammalian-Lympholyte in 15-mL conical blue-top tube, centrifuged for 20 minutes at 1500 g at 4° C.
After centrifugation, the well-defined lymphocyte (PBMC) layer at the interface was carefully removed to a new 15-mL centrifuge tube and was diluted to a total volume of 15 mL to reduce the density of the solution. The content was centrifuged at 800 g for 10 minutes at 4° C. to pellet the PBMC. The pellet was re-suspended in 1 mL of PBS and further diluted to 10 mL, followed by centrifugation at 800 g for 10 minutes at 4° C. to pellet the PBMC. The pellet was re-suspended in 1 mL PBS and followed by 5 mL ice cold de-ionized water, mixed for 30 seconds by inverting to lyse the remaining red blood cells. Five ml of ice cold 2×PBS was added to bring the mixture back to isotonicity. The mixture was centrifuged at 800 g for 10 minutes at 4° C. to pellet the cells and discard the supernatant. The resulting pellet was re-suspended in 1 mL PBS. An aliquot of 10 μL of the pellet suspension was diluted into 90 μL of PBS for cell count. An aliquot of each sample was transferred to a fresh Eppendorf tubes and centrifuged at 5000 rpm for 5 min at 4° C. The pellets were ready for bioanalysis.
Concentrations of nucleoside triphosphate in PBMC were determined by tandem mass spectrometric method (LC/MS/MS). Chromatography was conducted on ACQUITY UPLC HSS T3 Column, 100 Å, 1.8 μm, 2.1 mm×50 mm using a mobile phase gradient consisting of (A) 2 mM ammonium dihydrogen-phosphate and 5 mM Hexylamine in (B) Acetonitrile, 8% B to 22% B in 3.2 minutes at a flow rate of 0.3 mL/minute. The mass spectrometer was operated in the Multiple Reaction Monitoring (MRM) using negative ionization mode. An internal standard, Carbosynth was used in the construction of standard calibration curves in blank PBMC obtained commercially. The nucleoside triphosphate was monitored at m/z 538.1>158.9 and the internal standard was monitored at 536.1>158.9. The dynamic range was 50, 100, 300, 1000, 3000, 10000, 30000 fmole/3×10^6 PBMC.

The record followed here is patent US20140205566A1, “CYCLIC NUCLEUOSIDE DERIVATIVES AND USES THEREOF” (NOVARTIS AG, priority 2012, published 2014).

A word on the CC50: it is the concentration that lowers cell viability or growth by half.

Take `CCOC(=O)[C@H](C)N[P@@]1(=O)OC[C@H]2O[C@@H](n3cnc4c(OCC)nc(N)nc43)[C@](C)(F)[C@@H]2O1` [Example 1, (S)-ethyl 2-(((2R,4aR,6R,7R,7aR)-6-(2-amino-6-ethoxy-9H-purin-9-yl)-7-fluoro-7-methyl-2-oxidotetrahydro-4H-furo[3,2-d][1,3,2]dioxaphosphinin-2-yl)amino)propanoate]: the half-life in data set [1] is 47 min. This compound showed a CC50 at 96 h in data set [2] greater than 50 µM. Besides, in data set [3], the “NTP AUC0-24h” value is 36900 ± 11358 fmol/3 million cells and the “NTP Cmax” value is recorded as 2331 ± 1181 fmol/3 million cells.
The matching figures for `CCOc1nc(N)nc2c1ncn2[C@@H]1O[C@@H]2CO[P@@](=O)(N[C@@H](C)C(=O)OC(C)C)O[C@H]2[C@@]1(C)F` [Example 2, (S)-isopropyl 2-(((2S,4aR,6R,7R,7aR)-6-(2-amino-6-ethoxy-9H-purin-9-yl)-7-fluoro-7-methyl-2-oxidotetrahydro-4H-furo[3,2-d][1,3,2]dioxaphosphinin-2-yl)amino)propanoate]: 32 min, 34 µM, 7218 ± 5117 fmol/3 million cells and 618 ± 308 fmol/3 million cells.
As to `CCOc1nc(N)nc2c1ncn2[C@@H]1O[C@@H]2CO[P@](=O)(N[C@@H](C)C(=O)OC)O[C@H]2[C@@]1(C)F` [Example 3, (S)-methyl 2-(((2R,4aR,6R,7R,7aR)-6-(2-amino-6-ethoxy-9H-purin-9-yl)-7-fluoro-7-methyl-2-oxidotetrahydro-4H-furo[3,2-d][1,3,2]dioxaphosphinin-2-yl)amino)propanoate], the half-life in data set [1] was 57 min. In data set [2], this compound had a CC50 at 96 h greater than 50 µM. In data set [3], the “NTP AUC0-24h” value worked out at 10457 ± 2983 fmol/3 million cells and the “NTP Cmax” value is 662 ± 228 fmol/3 million cells.
For `CCOc1nc(N)nc2c1ncn2[C@@H]1O[C@@H]2CO[P@@](=O)(N[C@H](C)C(=O)OC(C)C)O[C@H]2[C@@]1(C)F` [Example 6, (R)-isopropyl 2-(((2S,4aR,6R,7R,7aR)-6-(2-amino-6-ethoxy-9H-purin-9-yl)-7-fluoro-7-methyl-2-oxidotetrahydro-4H-furo[3,2-d][1,3,2]dioxaphosphinin-2-yl)amino)propanoate], the 50% cytotoxic concentration (CC50) at 96 h in data set [2] was greater than 50 µM. Also, in data set [3], the “NTP AUC0-24h” value was 11049 ± 2190 fmol/3 million cells and the “NTP Cmax” value came out at 777 ± 45.2 fmol/3 million cells.
